Source: patent EP3723745B1, “PHENOXY ACIDS FOR THE TREATMENT OF NEUROMUSCULAR DISORDERS” (NMD Pharma A/S, priority 2017, dated 2019)

What was measured:
soleus muscles = test: Measurement of force in an in vitro model: isolated rat nerve-muscle preparation with tubocurarine; details: for activation at 50 µM: Rattus norvegicus, 40 min, percentage of initial force restored after 40 mins with 50 µM test compound, tubocurarine (115 nM) for 90 mins, read-out: Point increase
Method: Recovery of force is quantified as the percentage of the force prior to tubocurarine that is recovered by the compound.
The current invention relates to compounds that inhibit CIC-1 ion channels and increase muscle excitability and thereby improve muscle function in clinical conditions where muscle activation is failing. Such conditions result in loss of contractile function of skeletal muscle, weakness and excessive fatigue. In this series of experiments the compounds were tested for their ability to restore contractile function of isolated rat muscle when the neuromuscular transmission had been compromised akin to neuromuscular disorders.
Experimentally, soleus muscles from 4-5 wk old rats were isolated with the motor nerve remaining attached. The nerve-muscle preparations were mounted in experimental setups that enabled electrical stimulation of the motor nerve. Stimulation of the motor nerve led to activation of the muscle fibres and ensuing force production that was recorded.
After mounting the nerve-muscle preparation in the experimental setup, the contractile function of the muscle was initially assessed under the control conditions (Figure 2A). […] The experimental condition mimics the failing neuromuscular transmission in a range of neuromuscular disorders. After addition of tubocurarine the contractile force declined over the next 90 mins to 10-50 % of the control force. 50 µM of the test compound was then added and the contractile force recovered despite the continued presence of tubocurarine. To quantify the ability of the compound to restore force the percentage of the initial force that was restored was determined after 40 mins of compound exposure (Figure 2B) and the point increase is reported in Table 3. Table 3: Percentage increase of initial force that was restored using compounds of the invention

human CIC-1 channels = biological target: T1, human CIC-1 channels (Homo sapiens, UniProt P35523); test: Automated patch-clamp on human CIC-1 expressed in CHO cells; format: cell-based; details: difference in half activation voltage, compound added intracellularly vs control cell patches; positive shift = CIC-1 inhibition
T1 construct: host or cells: CHO cells constitutively expressing human ClC-1
Method: The investigatory goal of these experiments was to evaluate how compounds affect the open probability and current amplitude of human CIC-1 channels expressed in CHO cells. Experiments were performed using an automated patch clamp system that allowed high throughput testing of whole cell patches together with both intracellular and extracellular addition of compound.
Automated whole cell patch clamp experiments were performed with the Qpatch 16 system (Sophion Bioscience, Ballerup, Denmark) at room temperature. Data acquisition and analysis were performed in the Qassay software (ver. 5.6, Odense).
To evoke CIC-1 currents in whole cell patches, the membrane potential was initially stepped from a holding potential of -30 mV to +60 mV for 100 ms and then to various test voltages (sweeps) ranging from +120 mV to -140 mV in steps of 20 mV for 300 ms. To obtain tail currents, the membrane potential was stepped to -100 mV after each test voltage for 300 ms and then relaxed to -30 mV for 2 sec between sweeps (Figure 3). I/V relationships for whole cell instant and steady state current amplitudes were obtained by plotting average current densities at the beginning and at the end of the 300 ms step against the membrane potential (Figure 4).
In order to determine the relative overall open probability (P0), the instantaneous tail currents were normalized to the maximal tail current obtained following the most positive voltage step and plotted against the test voltage. Plots of normalized tail currents from each whole cell patch were then fitted to a Boltzmann function allowing determination of half activation voltages (V1/2, Figure 5).
For automated patch clamp experiments extracellular solutions contained: 2 mM CaCl2, 1 mM MgCl2, 10 mM HEPES, 4 mM KCI, 145 mM NaCl, 10 mM Glucose, pH adjusted to 7.4 with NaOH (2 M). Osmolality adjusted to -320 using sucrose.
Intracellular solutions contained: 80 mM CsF, 60 mM CsCI, 5/1 mM KOH/EGTA, 10 mM HEPES, 10 mM NaCl, pH adjusted to 7.2 with NaOH (2 M). Osmolality adjusted to -320 mOsm using sucrose.
Cells used in patch clamp experiments were Chinese hamster ovary cells (CHO) constitutively expressing human CIC-1 channels. The amino acid sequence encoded by the cDNA used to create this cell line was identical to the translated sequence for GenBank accession number NM_000083.2. Cells were produced by Charles River (Catalogue CT6175, Cleveland OH, USA) in a cryopreserved format. Experiments were performed on the cells directly after thawing (3 × 10^6 cells used in each experiment).
To evaluate the compound effect on CIC-1, when applied directly to the intracellular side of the cell membrane, the half activation voltage, V1/2, was determined from whole cell patches with compound added to the intracellular solution and then compared to V1/2 determined from control cell patches with only vehicle added to the intracellular solution. Additionally, the effect of extracellular added compound was evaluated by determine V1/2 and steady state current amplitudes before and after exchanging the extracellular solution to contain compound.
The difference in half activation voltage of CIC-1 channels, ΔV1/2, was determined as the difference between the cell patches treated intracellularly with compound and control cells patches and is reported in Table 4 below. A positive shift in ΔV1/2 is reflecting CIC-1 channel inhibition by the tested compound. P-values of <0.05 is considered significant. […]

CIC-1 channels = biological target: T2, CIC-1 channels (Rattus norvegicus, UniProt P35524); test: Electrophysiological measurement of compound inhibition of CIC-1 in rat muscle (Gm, three micro-electrodes technique); format: cell-based; details: reduction of Gm in fibres of whole rat soleus muscles, approx. 30°C; n = number of experiments
T2 construct: from tissue; host or cells: intact soleus muscle of 12-14-week old Wistar rats
T2 sequence (P35524 1-994): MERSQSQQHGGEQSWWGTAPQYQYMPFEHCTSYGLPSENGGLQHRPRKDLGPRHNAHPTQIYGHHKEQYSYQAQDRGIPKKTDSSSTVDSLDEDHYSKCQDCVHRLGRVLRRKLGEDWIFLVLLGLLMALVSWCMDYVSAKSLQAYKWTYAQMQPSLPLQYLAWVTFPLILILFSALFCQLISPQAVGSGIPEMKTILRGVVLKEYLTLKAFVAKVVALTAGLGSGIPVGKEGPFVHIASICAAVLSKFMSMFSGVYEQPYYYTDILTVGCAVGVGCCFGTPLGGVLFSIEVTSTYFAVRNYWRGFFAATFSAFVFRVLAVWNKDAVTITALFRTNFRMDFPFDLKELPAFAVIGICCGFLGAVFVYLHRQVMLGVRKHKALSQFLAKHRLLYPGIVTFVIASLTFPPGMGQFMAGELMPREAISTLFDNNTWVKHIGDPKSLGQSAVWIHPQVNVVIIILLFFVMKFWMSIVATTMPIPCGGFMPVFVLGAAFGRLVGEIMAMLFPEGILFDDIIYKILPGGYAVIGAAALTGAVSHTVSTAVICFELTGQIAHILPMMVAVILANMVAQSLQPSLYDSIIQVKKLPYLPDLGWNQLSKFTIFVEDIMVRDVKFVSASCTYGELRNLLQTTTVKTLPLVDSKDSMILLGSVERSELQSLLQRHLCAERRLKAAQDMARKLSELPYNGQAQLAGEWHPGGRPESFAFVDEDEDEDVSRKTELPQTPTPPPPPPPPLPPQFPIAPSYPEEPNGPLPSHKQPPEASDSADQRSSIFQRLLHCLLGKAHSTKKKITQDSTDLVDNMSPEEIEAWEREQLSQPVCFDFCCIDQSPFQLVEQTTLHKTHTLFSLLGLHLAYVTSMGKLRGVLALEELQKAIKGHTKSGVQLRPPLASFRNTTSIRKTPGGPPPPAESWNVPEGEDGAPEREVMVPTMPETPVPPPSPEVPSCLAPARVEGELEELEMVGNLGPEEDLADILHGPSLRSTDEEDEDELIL
Description: Table 2: Inhibition of CIC-1 ion channel using compounds of the invention

T1 sequence (P35523 whole entry): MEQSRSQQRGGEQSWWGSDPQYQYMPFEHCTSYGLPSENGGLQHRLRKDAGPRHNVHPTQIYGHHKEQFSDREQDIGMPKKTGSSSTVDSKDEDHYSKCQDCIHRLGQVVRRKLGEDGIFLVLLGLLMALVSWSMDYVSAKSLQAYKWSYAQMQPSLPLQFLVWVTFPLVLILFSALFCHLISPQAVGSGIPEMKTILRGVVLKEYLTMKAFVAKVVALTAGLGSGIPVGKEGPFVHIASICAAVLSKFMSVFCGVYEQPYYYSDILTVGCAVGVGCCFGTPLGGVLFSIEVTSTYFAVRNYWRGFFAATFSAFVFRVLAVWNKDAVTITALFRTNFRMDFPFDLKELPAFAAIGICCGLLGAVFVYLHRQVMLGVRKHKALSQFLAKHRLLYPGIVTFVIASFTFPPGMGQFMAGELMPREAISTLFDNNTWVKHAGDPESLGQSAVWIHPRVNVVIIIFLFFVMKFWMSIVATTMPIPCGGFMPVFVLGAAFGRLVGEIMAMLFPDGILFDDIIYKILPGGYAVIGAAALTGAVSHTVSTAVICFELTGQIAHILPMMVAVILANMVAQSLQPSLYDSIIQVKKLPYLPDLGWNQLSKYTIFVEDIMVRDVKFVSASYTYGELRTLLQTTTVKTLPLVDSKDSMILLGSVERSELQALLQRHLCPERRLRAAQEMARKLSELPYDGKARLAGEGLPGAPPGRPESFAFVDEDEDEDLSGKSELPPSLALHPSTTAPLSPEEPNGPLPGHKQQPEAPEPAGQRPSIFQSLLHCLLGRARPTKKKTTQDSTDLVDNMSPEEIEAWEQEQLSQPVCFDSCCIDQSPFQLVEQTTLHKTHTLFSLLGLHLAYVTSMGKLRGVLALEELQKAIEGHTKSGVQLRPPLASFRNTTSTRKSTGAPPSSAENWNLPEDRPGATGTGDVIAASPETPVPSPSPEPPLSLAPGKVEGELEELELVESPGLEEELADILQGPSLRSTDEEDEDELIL

SMILES	average force (AUC) relative to initial force (soleus muscles; 50 µM compound added after 90 min incubation in tubocurarine, 3 muscles (Figure 2))	ΔV1/2 (human CIC-1 channels)	activation at 50 µM (soleus muscles)	EC50 (CIC-1 channels)
O=C(O)[C@H](CF)Oc1ccc(Br)cc1F [Compound A-19, (2R)-2-(4-bromo-2-fluorophenoxy)-3-fluoropropanoic acid]	recovered			
O=C(O)[C@@H](Oc1ccc(Br)cc1F)C(F)F [Compound A-9, (2R)-2-(4-bromo-2-fluorophenoxy)-3,3-difluoropropanoic acid]		15.2 mV		
O=C(O)[C@@H](Oc1ccc(Br)cc1F)C1CCC1 [Compound A-86, (2S)-2-(4-bromo-2-fluorophenoxy)-2-cyclobutylacetic acid]			45%	8.9 ± 3.2 µM
CC(C)[C@@H](Oc1ccc(Br)cc1F)C(=O)O [Compound A-4, (2R)-2-(4-bromo-2-fluorophenoxy)-3-methylbutanoic acid]				> 80 µM
C[C@H](Oc1ccc(Br)cc1Br)C(=O)O [Compound A-40, (2S)-2-(2,4-dibromophenoxy)propan oic acid]		5.19 mV	20%	4.2 ± 0.6 µM
[2H]c1cc(Br)cc([2H])c1O[C@@H](C)C(=O)O [Compound A-6, (2S)-2-[4-bromo(2,6-^2H2)phenoxy]propanoic acid]		13.0 mV	44%	
CC[C@H](Oc1ccc(Br)cc1F)C(=O)O [Compound A-58, (2S)-2-(4-bromo-2-fluorophenoxy)butanoic acid]		28.2 mV	44%	6.3 ± 2.4 µM
[2H][C@@](CF)(Oc1ccc(Br)cc1)C(=O)O [Compound A-82, (2R)-2-(4-bromophenoxy)-3-fluoro(2-^2H)propanoic acid]		19.0 mV	48%	
COC(=O)[C@H](C)Oc1ccc(Cl)cc1 [Compound A-54, methyl (2S)-2-(4-chlorophenoxy)propano ate]				6.8 ± 1.3 µM
O=C(O)[C@H](CF)Oc1ccc(Br)cc1 [Compound A-26, (2R)-2-(4-bromophenoxy)-3-fluoropropanoic acid]		19.7 mV	39%	3.8 ± 0.8 µM
CC(C)[C@H](Oc1ccc(Br)cc1I)C(=O)O [Compound A-88, (2S)-2-(4-bromo-2-iodophenoxy)-3-methylbutanoic acid]			55%	5.9 ± 1.6 µM
C[C@@H](F)[C@H](Oc1ccc(Br)cc1F)C(=O)O [Compound A-95, (2R,3R)-2-(4-bromo-2-fluorophenoxy)-3-fluorobutanoic acid]		10.3 mV	39%	12.5 ± 1.4 µM
[2H]CC([2H])[C@H](Oc1ccc(Br)cc1)C(=O)O (stereo partly drawn) [Compound A-76, (2S)-2-(4-bromophenoxy)(3,4-^2H2)butanoic acid]		26.2 mV	62%	
O=C(O)[C@H](CCF)Oc1ccc(Br)cc1F [Compound A-85, (2S)-2-(4-bromo-2-fluorophenoxy)-4-fluorobutanoic acid]		12.5 mV	37%	10 ± 9.5 µM
O=C(O)[C@@H](Oc1ccc(Br)cc1Cl)C1CCC1 [Compound A-71, (2S)-2-(4-bromo-2-chlorophenoxy)-2-cyclobutylacetic acid]			49%	10.1 ± 0.2 µM
C#CC[C@H](Oc1ccc(Br)cc1Cl)C(=O)O [Compound A-67, (2S)-2-(4-bromo-2-chlorophenoxy)pent-4-ynoic acid]		37.8 mV	40%	9.4 ± 0.6 µM
C[C@H](Oc1ccc(Cl)cc1F)C(=O)O [Compound A-38, (2S)-2-(4-chloro-2-fluorophenoxy)propanoi c acid]		17.4 mV		
C[C@H](Oc1ccc(Br)cc1I)C(=O)O [Compound A-8, (2S)-2-(4-bromo-2-iodophenoxy)propanoic acid]		9.4 mV		
C#CC[C@H](Oc1ccc(Br)cc1Br)C(=O)O [Compound A-66, (2S)-2-(2,4-dibromophenoxy)pent-4-ynoic acid]		27.4 mV	51%	7.2 µM
CC[C@H](Oc1ccc(Br)cc1Cl)C(=O)O [Compound A-78, (2S)-2-(4-bromo-2-chlorophenoxy)butanoic acid]			38%	7.6 ± 1.6 µM
C[C@@H](Oc1ccc(Br)cc1F)C(=O)O [Compound A-28, (2R)-2-(4-bromo-2-fluorophenoxy)propanoi c acid]			-8%	
CC(C)[C@H](Oc1ccc(Br)cc1Cl)C(=O)O [Compound A-73, (2S)-2-(4-bromo-2-chlorophenoxy)-3-methylbutanoic acid]			51%	7.2 µM
CC[C@H](Oc1ccc(Br)cc1I)C(=O)O [Compound A-90, (2S)-2-(4-bromo-2-iodophenoxy)butanoic acid]			57%	2.3 µM
O=C(O)[C@H](CCF)Oc1ccc(Br)cc1I [Compound A-83, (2S)-2-(4-bromo-2-iodophenoxy)-4-fluorobutanoic acid]			35%	8 µM
C#CC[C@H](Oc1ccc(Br)cc1F)C(=O)O [Compound A-69, (2S)-2-(4-bromo-2-fluorophenoxy)pent-4-ynoic acid]		32.6 mV		
